The source of these data is ChEMBL document CHEMBL1147165, “Synthesis and alpha(1)-adrenoceptor antagonist activity of derivatives and isosters of the furan portion of (+)-cyclazosin” (Bioorg Med Chem, 2007).

What is called Ki is the dissociation constant of the complex between target and ligand, obtained from inhibition or displacement. Read a high Ki as weaker binding. Usually pKb stands for the negative decadic logarithm of the Kb, by convention in mol/L.

For one experiment, the species on record is Homo sapiens. In words: Selectivity ratio of pKi for human adrenergic alpha-1d receptor to pKi for human adrenergic alpha-1b receptor.
For experiment [1], the target named is T1, Alpha-1A adrenergic receptor (Homo sapiens, UniProt P35348).
T1 sequence (P35348 whole entry): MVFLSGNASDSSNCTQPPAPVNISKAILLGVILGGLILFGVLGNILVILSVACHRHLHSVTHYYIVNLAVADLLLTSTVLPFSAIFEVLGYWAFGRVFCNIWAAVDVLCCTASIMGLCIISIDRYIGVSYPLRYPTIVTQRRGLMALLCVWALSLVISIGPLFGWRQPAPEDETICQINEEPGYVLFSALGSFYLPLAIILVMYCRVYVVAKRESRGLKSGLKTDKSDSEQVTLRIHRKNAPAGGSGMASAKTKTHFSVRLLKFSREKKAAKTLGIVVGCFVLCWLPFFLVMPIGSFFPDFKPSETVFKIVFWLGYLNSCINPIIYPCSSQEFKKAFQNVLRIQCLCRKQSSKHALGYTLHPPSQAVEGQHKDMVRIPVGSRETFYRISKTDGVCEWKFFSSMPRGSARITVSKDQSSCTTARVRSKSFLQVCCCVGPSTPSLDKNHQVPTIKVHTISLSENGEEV
In words: Displacement of [3H]prazosin from human adrenergic alpha-1a receptor expressed in CHO cells. In kind it is cell-based. (Displacement assays read how much labelled ligand stays bound in the presence of the test substance.)

The species entered for a further experiment is Rattus norvegicus. In words: Selectivity ratio for rat adrenergic Alpha-1D receptor over rat adrenergic Alpha-1B receptor. The experiment is classed as functional.
Experiment [2] addresses Alpha adrenergic receptor 1A and 1B (Rattus norvegicus) (UniProt P15823+P43140). Kind of experiment: Selectivity ratio for rat adrenergic alpha-1A receptor over rat adrenergic Alpha-1B receptor. The experiment is classed as functional.
Experiment [3] has as its target Alpha adrenergic receptor 1A and 1D (Rattus norvegicus) (UniProt P23944+P43140). Kind of experiment: Selectivity ratio for rat adrenergic alpha-1A receptor over rat adrenergic Alpha-1D receptor. In kind it is functional.
Experiment [4] concerns the target T2, Alpha-1B adrenergic receptor (Homo sapiens, UniProt P35368).
T2 sequence (P35368 whole entry): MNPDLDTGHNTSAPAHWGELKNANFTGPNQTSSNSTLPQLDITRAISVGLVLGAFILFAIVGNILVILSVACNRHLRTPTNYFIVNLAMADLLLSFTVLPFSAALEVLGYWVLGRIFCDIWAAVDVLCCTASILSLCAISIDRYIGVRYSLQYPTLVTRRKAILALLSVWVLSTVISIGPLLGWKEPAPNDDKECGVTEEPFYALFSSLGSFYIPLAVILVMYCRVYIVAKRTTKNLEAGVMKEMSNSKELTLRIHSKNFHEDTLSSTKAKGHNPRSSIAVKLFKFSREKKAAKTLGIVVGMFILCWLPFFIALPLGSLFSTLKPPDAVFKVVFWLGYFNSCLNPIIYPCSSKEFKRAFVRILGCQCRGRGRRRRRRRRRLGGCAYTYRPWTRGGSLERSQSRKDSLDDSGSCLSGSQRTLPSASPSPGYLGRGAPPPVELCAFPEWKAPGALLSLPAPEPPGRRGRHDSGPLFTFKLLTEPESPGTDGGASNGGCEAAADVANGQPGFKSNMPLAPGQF
In words: Displacement of [3H]prazosin from human adrenergic alpha-1b receptor expressed in CHO cells. In kind it is cell-based.

For experiment [5], the target named is T3, Alpha-1A adrenergic receptor (Rattus norvegicus) (UniProt P43140).
T3 sequence (whole entry): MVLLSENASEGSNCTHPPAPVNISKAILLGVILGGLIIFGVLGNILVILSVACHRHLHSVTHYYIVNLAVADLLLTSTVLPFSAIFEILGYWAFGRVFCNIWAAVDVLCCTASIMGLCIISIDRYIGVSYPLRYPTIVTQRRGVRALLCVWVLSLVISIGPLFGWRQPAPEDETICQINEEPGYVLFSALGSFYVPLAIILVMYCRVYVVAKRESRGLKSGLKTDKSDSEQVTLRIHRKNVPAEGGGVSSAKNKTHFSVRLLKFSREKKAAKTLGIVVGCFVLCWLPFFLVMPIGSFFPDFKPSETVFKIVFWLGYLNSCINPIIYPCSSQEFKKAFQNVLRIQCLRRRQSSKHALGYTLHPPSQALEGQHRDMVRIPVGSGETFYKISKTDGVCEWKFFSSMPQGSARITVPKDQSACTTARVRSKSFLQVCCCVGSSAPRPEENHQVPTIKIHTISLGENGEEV
In words: (§1) Antagonist activity against adrenergic alpha-1A receptor in rat prostatic vas deferens assessed as inhibition of noradrenaline-induced contraction. In kind it is functional, tissue-based.

Experiment [6] concerns the target T4, Alpha-1D adrenergic receptor (Rattus norvegicus) (UniProt P23944).
T4 sequence (whole entry): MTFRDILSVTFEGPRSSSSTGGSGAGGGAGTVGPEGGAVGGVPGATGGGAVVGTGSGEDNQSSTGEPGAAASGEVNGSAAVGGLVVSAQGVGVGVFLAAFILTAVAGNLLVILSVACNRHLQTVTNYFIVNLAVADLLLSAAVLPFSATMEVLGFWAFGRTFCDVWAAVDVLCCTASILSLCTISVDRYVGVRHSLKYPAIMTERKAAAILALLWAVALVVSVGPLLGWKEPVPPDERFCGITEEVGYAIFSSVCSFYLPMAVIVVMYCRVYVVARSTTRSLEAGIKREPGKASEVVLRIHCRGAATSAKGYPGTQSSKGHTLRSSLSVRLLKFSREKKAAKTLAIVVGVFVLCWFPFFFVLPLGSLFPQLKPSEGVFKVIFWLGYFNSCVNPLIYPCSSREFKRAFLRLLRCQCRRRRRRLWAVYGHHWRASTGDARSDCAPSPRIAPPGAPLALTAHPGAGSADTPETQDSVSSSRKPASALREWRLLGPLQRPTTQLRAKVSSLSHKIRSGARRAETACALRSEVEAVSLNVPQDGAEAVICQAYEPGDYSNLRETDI
In words: (§2) Antagonist activity against adrenergic Alpha-1D receptor in rat thoracic aorta assessed as noradrenaline-induced response. The experiment is classed as functional, tissue-based.

Experiment [7] has as its target Adrenergic receptors; alpha-1 A & B (Homo sapiens) (UniProt P35348+P35368). In words: Selectivity ratio of pKi for human adrenergic alpha-1a receptor to pKi for human adrenergic alpha-1b receptor. The experiment is classed as protein assay.
Experiment [8] deals with Alpha adrenergic receptor (1a and 1d) (Homo sapiens) (UniProt P35348+P25100). Kind of experiment: Selectivity ratio of pKi for human adrenergic alpha-1a receptor to pKi for human adrenergic alpha1d receptor. In kind it is protein assay.
The target of experiment [9] is T5, Alpha-1D adrenergic receptor (Homo sapiens, UniProt P25100).
T5 sequence (P25100 whole entry): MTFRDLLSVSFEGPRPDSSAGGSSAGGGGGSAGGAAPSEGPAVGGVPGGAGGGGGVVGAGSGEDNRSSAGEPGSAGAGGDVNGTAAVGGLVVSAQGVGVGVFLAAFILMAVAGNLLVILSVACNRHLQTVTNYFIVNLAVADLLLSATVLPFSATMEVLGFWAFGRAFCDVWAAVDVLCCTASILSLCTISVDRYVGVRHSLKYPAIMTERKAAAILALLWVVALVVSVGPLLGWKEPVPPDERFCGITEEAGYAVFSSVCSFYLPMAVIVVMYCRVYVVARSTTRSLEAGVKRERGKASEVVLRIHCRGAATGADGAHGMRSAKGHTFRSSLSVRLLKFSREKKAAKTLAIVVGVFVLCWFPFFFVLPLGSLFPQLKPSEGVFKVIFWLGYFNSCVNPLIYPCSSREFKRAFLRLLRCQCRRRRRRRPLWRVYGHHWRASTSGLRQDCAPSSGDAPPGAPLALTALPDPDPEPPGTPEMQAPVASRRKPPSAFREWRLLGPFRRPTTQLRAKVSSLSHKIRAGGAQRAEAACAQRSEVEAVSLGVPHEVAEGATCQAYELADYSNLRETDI
Kind of experiment: Displacement of [3H]prazosin from human adrenergic alpha-1d receptor expressed in CHO cells. In kind it is cell-based.

The target of experiment [10] is T6, Alpha-1B adrenergic receptor (Rattus norvegicus) (UniProt P15823).
T6 sequence (whole entry): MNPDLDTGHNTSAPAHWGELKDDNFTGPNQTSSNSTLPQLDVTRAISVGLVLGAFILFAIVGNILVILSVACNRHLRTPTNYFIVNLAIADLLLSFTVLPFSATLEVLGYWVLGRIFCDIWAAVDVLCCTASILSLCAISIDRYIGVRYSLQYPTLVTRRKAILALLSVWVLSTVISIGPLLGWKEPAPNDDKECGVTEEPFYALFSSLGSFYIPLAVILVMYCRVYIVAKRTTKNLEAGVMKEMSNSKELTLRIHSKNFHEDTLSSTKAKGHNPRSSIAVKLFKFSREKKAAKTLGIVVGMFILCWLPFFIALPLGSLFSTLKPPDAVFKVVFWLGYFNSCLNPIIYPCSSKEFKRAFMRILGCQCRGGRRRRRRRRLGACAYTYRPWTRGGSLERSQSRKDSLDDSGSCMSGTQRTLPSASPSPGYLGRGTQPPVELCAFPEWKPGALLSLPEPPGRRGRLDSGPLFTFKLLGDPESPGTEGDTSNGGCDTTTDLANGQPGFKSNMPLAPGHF
In words: Antagonist activity against adrenergic Alpha-1B receptor in rat spleen assessed as inhibition of phenylephrine-induced response. In kind it is functional, tissue-based.

Experiment [11] addresses T7, Alpha-1D adrenergic receptor (Rattus norvegicus, UniProt P23944).
T7 sequence (P23944 whole entry): T4 sequence (whole entry)
The description is as §2. To be noted: read-out: pA2 (converted). In kind it is functional, tissue-based.

Experiment [12] has as its target T8, Alpha-1A adrenergic receptor (Rattus norvegicus, UniProt P43140).
T8 sequence (P43140 whole entry): T3 sequence (whole entry)
The experiment is described as §1. The experiment is classed as functional, tissue-based. Particulars: read-out: pA2 (converted).

Take `COc1cc2nc(N3CCN(C(=O)c4ccccn4)[C@H]4CCCC[C@H]43)nc(N)c2cc1OC`: the Selectivity ratio worked out at 5 in the experiment listed under Homo sapiens; 33 in the experiment listed under Rattus norvegicus; 40 in experiment [2]; 1 in experiment [3]; 8 in experiment [7]; 2 in experiment [8]. In addition, the Ki in experiment [1] was 49 nM; in experiment [4], 5.89 nM; in [9], 26.9 nM. The results for the pKb in experiment [5], in experiment [6] and in experiment [10] were 7.04, 7.12 and 8.64, respectively.
As to `COc1cc2nc(N3CCN(C(=O)c4ccc[nH]4)[C@H]4CCCC[C@H]43)nc(N)c2cc1OC`, the Selectivity ratio in the experiment listed under Homo sapiens worked out at 0.5; in the experiment filed under Rattus norvegicus it was 5; in [2], 10; in experiment [3] it was 2; in [7], 3; in experiment [8] it was 7. In addition, the Ki was 10.5 nM in [1], 3.16 nM in experiment [4] and 1.51 nM in experiment [9]. Further, the values for the pKb in experiment [5], in experiment [6] and in experiment [10] were 7.06, 7.33 and 8.05, respectively.
In the case of `COc1cc2nc(N3CCN(C(=O)c4ccc(Br)o4)[C@H]4CCCC[C@H]43)nc(N)c2cc1OC`, the Selectivity ratio in the experiment filed under Homo sapiens came out at 5; in the experiment listed under Rattus norvegicus, 19; in experiment [2], 9; in [3], 0.5; in experiment [7], 11; in experiment [8] it was 2. Further, the Ki in [1] is 3.47 nM; in experiment [4] it was 0.309 nM; in experiment [9] it was 1.55 nM. Moreover, the values for the pKb in experiment [5] and in experiment [10] were 7.53 and 8.5, respectively. Moreover, in experiment [11], the Kb is 58.9 nM.
Take `COc1cc2nc(N3CCN(C(=O)c4cccs4)[C@H]4CCCC[C@H]43)nc(N)c2cc1OC`: the Selectivity ratio in the experiment listed under Homo sapiens is 10; in the experiment listed under Rattus norvegicus, 21; in experiment [2] it was 22; in experiment [3], 1; in experiment [7], 18; in [8], 2. Further, the inhibition constant (Ki) in [1] was 4.27 nM; in experiment [4], 0.24 nM; in [9], 2.34 nM. Further, the negative logarithm of the Kb (pKb) in experiment [5] was 7.44; in experiment [10], 8.78. Further, the Kb in experiment [11] was 35.5 nM.
Take `COc1cc2nc(N3CCN(C(=O)c4ccco4)[C@H]4CCCC[C@H]43)nc(N)c2cc1OC` [CYCLAZOSIN]: the Ki in experiment [1] was 12.3 nM; in [4], 0.135 nM; in experiment [9], 3.24 nM. Moreover, the Kb in [12] was 17 nM. In addition, the pKb in experiment [10] stood at 8.86.
Take `COc1ccc(C(=O)N2CCN(c3nc(N)c4cc(OC)c(OC)cc4n3)[C@@H]3CCCC[C@@H]32)o1`: the Selectivity ratio in the experiment filed under Homo sapiens came to 4; in the experiment filed under Rattus norvegicus it was 28; in [2], 45; in experiment [3], 2; in [7], 32; in [8] it was 8. Moreover, the values for the inhibition constant Ki in experiment [1], in [4] and in experiment [9] were 27.5 nM, 0.871 nM and 3.63 nM, respectively. Besides, the values for the Kb in [12] and in experiment [11] were 141 nM and 89.1 nM, respectively. Besides, the pKb in experiment [10] stood at 8.5.
With `COc1cc2nc(N3CCN(C(=O)c4ccc(C(C)=O)o4)[C@H]4CCCC[C@H]43)nc(N)c2cc1OC`, the Selectivity ratio in the experiment listed under Homo sapiens came out at 5; in the experiment filed under Rattus norvegicus, 29; in experiment [2], 12; in experiment [3], 0.4; in experiment [7], 19; in experiment [8], 4. Besides, the values for the Ki in [1], in [4] and in experiment [9] were 25.7 nM, 1.38 nM and 7.41 nM, respectively. For the same compound, the pKb in [5] is 7.05; in experiment [10], 8.13. Also, the Kb in experiment [11] was 214 nM.
